Experimental data as given in US9828379B2 (priority 2013, dated 2017).

Tests used:
ABHD6 [1] = target: T1, ABHD6 (Mus musculus, UniProt Q8R2Y0); assay: biochemical; conditions: in vitro competitive ABPP
T1 sequence (Q8R2Y0 1-336): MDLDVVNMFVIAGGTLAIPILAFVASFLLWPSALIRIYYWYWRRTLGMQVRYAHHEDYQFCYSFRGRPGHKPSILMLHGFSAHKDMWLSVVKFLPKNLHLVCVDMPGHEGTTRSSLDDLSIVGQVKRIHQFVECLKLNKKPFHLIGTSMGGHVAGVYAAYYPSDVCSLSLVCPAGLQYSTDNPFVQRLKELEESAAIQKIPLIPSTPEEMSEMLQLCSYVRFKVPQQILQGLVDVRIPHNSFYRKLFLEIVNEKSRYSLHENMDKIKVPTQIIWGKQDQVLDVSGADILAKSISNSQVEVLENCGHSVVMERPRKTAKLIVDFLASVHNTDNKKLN

FAAH [2] = target: T2, FAAH (Mus musculus, UniProt O08914); assay: biochemical; conditions: in vitro competitive ABPP
T2 sequence (O08914 1-579): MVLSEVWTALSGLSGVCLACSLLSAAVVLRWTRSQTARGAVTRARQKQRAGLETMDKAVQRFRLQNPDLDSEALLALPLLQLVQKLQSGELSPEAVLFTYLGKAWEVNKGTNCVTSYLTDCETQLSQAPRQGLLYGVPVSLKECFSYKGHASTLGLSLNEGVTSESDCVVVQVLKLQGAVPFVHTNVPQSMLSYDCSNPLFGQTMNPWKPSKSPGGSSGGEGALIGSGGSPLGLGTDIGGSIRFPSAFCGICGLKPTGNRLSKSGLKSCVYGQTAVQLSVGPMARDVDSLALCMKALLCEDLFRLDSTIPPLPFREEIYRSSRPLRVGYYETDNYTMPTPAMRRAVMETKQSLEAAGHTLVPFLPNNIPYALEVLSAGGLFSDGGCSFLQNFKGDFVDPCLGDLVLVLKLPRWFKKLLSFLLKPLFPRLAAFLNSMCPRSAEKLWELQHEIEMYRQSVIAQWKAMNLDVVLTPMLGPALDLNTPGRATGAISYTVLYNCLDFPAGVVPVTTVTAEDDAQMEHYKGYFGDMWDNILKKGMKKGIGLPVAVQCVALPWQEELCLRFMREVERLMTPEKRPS

MAGL [3] = target: T3, MAGL (Mus musculus, UniProt O35678); assay: biochemical; conditions: mouse; in vitro competitive ABPP; read-out: Mouse (IC50 value, nM) MAGL
T3 sequence (O35678 1-303): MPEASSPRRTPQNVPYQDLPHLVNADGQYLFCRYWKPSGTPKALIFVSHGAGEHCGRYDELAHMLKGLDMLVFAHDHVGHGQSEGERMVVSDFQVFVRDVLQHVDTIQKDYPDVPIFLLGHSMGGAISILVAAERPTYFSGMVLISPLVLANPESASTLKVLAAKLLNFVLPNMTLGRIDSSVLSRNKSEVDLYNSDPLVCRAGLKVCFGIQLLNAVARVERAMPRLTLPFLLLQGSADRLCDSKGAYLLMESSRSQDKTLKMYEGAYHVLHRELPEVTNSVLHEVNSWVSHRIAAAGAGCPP

ABHD6 [4] = target: T1, ABHD6; assay: In vitro competitive activity-based protein profiling (Table 2, % inhibition at 1 μM); type: biochemical; conditions: read-out: % Inhibition at 1 μM ABHD6
FAAH [5] = target: T2, FAAH; assay: as above; type: biochemical; conditions: read-out: % Inhibition at 1 μM FAAH
MAGL [6] = target: T3, MAGL; assay: as above; type: biochemical; conditions: read-out: % Inhibition at 1 μM MAGL
Experimental: After 30 min, FP—Rh (1.0 μL, 50 μM in DMSO) was added and the mixture was incubated for another 30 min at 37° C. Reactions were quenched with SDS loading buffer (50 μL-4×) and run on SDS-PAGE.
Cell lysates were diluted with mock proteomes for use in competitive ABPP experiments.

Row | SMILES | IC50 (ABHD6 [1]) [nM] | IC50 (FAAH [2]) [nM] | IC50 (MAGL [3]) [nM] | inhibition at 1 µM (ABHD6 [4]) [%] | inhibition at 1 µM (FAAH [5]) [%] | inhibition at 1 µM (MAGL [6]) [%]
1 | CC(C)c1ccc(CN2CC3CN(C(=O)OC(C(F)(F)F)C(F)(F)F)CC3C2)c(N2CCCC2)c1 (stereo not drawn) [Example 23, 1,1,1,3,3,3-Hexafluoropropan-2-yl 5-[[4-(propan-2-yl)-2-(pyrrolidin-1-yl)phenyl]methyl]-octahydropyrrolo[3,4-c]pyrrole-2-carboxylate] | 1000 to 10000 | 1000 to 10000 | 100 to 1000 | < 25 | < 25 | > 75
2 | O=C(OC(C(F)(F)F)C(F)(F)F)N1CC2CN(Cc3ccc(F)cc3N3CCCC3)CC2C1 (stereo not drawn) [Example 15, 1,1,1,3,3,3-Hexafluoropropan-2-yl 5-[[4-fluoro-2-(pyrrolidin-1-yl)phenyl]methyl]-octahydropyrrolo[3,4-c]pyrrole-2-carboxylate] | 1000 to 10000 | 1000 to 10000 | 100 to 1000 | < 25 | 25 to 75 | > 75
3 | CC(C)c1ccc(CN2CC3CN(C(=O)OC(C(F)(F)F)C(F)(F)F)CC3C2)c(N2CCOCC2)c1 (stereo not drawn) [Example 22, 1,1,1,3,3,3-Hexafluoropropan-2-yl 5-[[2-(morpholin-4-yl)-4-(propan-2-yl)phenyl]methyl]-octahydropyrrolo[3,4-c]pyrrole-2-carboxylate] | 1000 to 10000 | 1000 to 10000 | 100 to 1000 | < 25 | < 25 | > 75
4 | O=C(OC(C(F)(F)F)C(F)(F)F)N1CC2CN(Cc3cccc(Cl)c3N3CCC(F)(F)CC3)CC2C1 (stereo not drawn) [Example 158, 1,1,1,3,3,3-hexafluoropropan-2-yl 5-[[3-chloro-2-(4,4-difluoropiperidin-1-yl)phenyl]methyl]-octahydropyrrolo[3,4-c]pyrrole-2-carboxylate] | 1000 to 10000 | > 10000 | 100 to 1000 | < 25 | < 25 | > 75
5 | CC(=O)N1CCC(n2nc(C)cc2CN2CC3CN(C(=O)OC(C(F)(F)F)C(F)(F)F)CC3C2)CC1 (stereo not drawn) [Example 60, 1,1,1,3,3,3-Hexafluoropropan-2-yl 5-[[1-(1-acetylpiperidin-4-yl)-3-methyl-1H-pyrazol-5-yl]methyl]-octahydropyrrolo[3,4-c]pyrrole-2-carboxylate] | 1000 to 10000 | > 10000 | 100 to 1000 | < 25 | < 25 | > 75
6 | Cc1c(CN2CC3CN(C(=O)OC(C(F)(F)F)C(F)(F)F)CC3C2)cccc1N1CCC2(CCOC2)C1 (stereo not drawn) [Example 46, 1,1,1,3,3,3-Hexafluoropropan-2-yl 5-[(2-methyl-3-[2-oxa-7-azaspiro[4.4]nonan-7-yl]phenyl)methyl]-octahydropyrrolo[3,4-c]pyrrole-2-carboxylate] | 1000 to 10000 | 1000 to 10000 | < 100 | < 25 | 25 to 75 | > 75
7 | CC(C)(C)c1cc(CN2CC3CN(C(=O)OC(C(F)(F)F)C(F)(F)F)CC3C2)n(C2CCOCC2)n1 (stereo not drawn) [Example 157, 1,1,1,3,3,3-hexafluoropropan-2-yl 5-[[3-tert-butyl-1-(oxan-4-yl)-1H-pyrazol-5-yl]methyl]-octahydropyrrolo[3,4-c]pyrrole-2-carboxylate] | 1000 to 10000 | > 10000 | 100 to 1000 | < 25 | < 25 | > 75
8 | CCn1cc(CN2CC3CN(C(=O)OC(C(F)(F)F)C(F)(F)F)CC3C2)c(-c2ccncc2)n1 (stereo not drawn) [Example 72, 1,1,1,3,3,3-Hexafluoropropan-2-yl 5-[[1-ethyl-3-(pyridin-4-yl)-1H-pyrazol-4-yl]methyl]-octahydropyrrolo[3,4-c]pyrrole-2-carboxylate] | 1000 to 10000 | 1000 to 10000 | < 100 | 25 to 75 | < 25 | > 75
